This is an account of results in patent publication US8580965B2, “Substituted sulfonamide compounds” (Gruenenthal GmbH, priority 2006, dated 2013).

The assay concerns the target T1, human B1R receptor (bradykinin 1 receptor) (Homo sapiens, UniProt P46663).
T1 construct: host or cells: CHO K1 cells (hB1R cells)
T1 sequence (P46663 1-353): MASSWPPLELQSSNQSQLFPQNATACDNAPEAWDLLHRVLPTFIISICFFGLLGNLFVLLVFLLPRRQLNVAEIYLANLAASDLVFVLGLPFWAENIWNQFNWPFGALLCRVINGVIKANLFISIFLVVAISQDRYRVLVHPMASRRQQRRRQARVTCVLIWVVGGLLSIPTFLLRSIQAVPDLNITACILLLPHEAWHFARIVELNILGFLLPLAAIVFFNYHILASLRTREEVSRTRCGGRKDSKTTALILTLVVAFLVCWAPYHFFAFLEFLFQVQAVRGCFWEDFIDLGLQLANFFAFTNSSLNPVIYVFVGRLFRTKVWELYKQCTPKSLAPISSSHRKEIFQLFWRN
Kind of assay: FLIPR Ca2+ assay (Fluo-4) on CHO K1 cells stably transfected with the human B1R gene; % activation and % inhibition at 10 μM. The class given is cell-based. The note with it: CHO-K1, test substance 10 μM; CHO K1 hB1R cells; Ca2+ inflow after 0.5 nM Lys-Des-Arg9-bradykinin; read-out: B1R antagonism, human [10 μM] % inhibition. The protocol:
The agonistic or antagonistic action of substances can be quantified on the bradykinin receptor 1 (B1R) of the species human and rat with ectopically expressing cell lines (CHO K1 cells) and with the aid of a Ca^2+-sensitive dye (Fluo-4) using a fluorescent imaging plate reader (FLIPR). The indication in % activation is based on the Ca^2+ signal after addition of Lys-Des-Arg^9-bradykinin (0.5 nM) or Des-Arg^9-bradykinin (100 nM). Antagonists result in a suppression of the Ca^2+ influx following administration of the agonist. The % inhibition in comparison with the maximum achievable inhibition is indicated.
Functional Investigation on the Bradykinin 1 Receptor (B1R)
The agonistic or antagonistic action of substances can be determined on the bradykinin 1 receptor (B1R) of the human and rat species with the following assay. According to this assay, the Ca^2+ inflow through the channel is quantified with the aid of a Ca^2+-sensitive dyes (Fluo-4 type, Molecular Probes Europe BV, Leiden, The Netherlands) in a fluorescent imaging plate reader (FLIPR, Molecular Devices, Sunnyvale, USA).
Chinese Hamster Ovary cells (CHO K1 cells) which are stably transfected with the human B1R gene (hB1R cells, Euroscreen s.a., Gosselies, Belgium) or the B1R gene of the rat (rB1R cells, Axxam, Milan, Italy) are used. For functional investigations, these cells are plated-out on black 96-well plates with a clear base (BD Biosciences, Heidelberg, Germany) in a density of 20,000-25,000 cells/well. Overnight, the cells are incubated at 37° C. and 5% CO2 in culture medium (hB1R cells: Nutrient Mixture Ham's F12, Gibco Invitrogen GmbH, Karlsruhe, Germany; rB1R cells: D-MEM/F12, Gibco Invitrogen, Karlsruhe, Germany) with 10 vol. % FBS (foetal bovine serum, Gibco Invitrogen GmbH, Karlsruhe, Germany). On the following day, the cells are loaded with 2.13 μM Fluo-4 (Molecular Probes Europe BV, Leiden, The Netherlands) in HBSS buffer (Hank's buffered saline solution, Gibco Invitrogen GmbH, Karlsruhe, Germany) […] (Sigma-Aldrich, Taufkirchen, Germany) and 10 mM HEPES (Sigma-Aldrich, Taufkirchen, Germany) for 60 min at 37° C. The plates are subsequently washed 2× with HBSS buffer, and HBSS buffer which additionally contains 0.1% BSA (bovine serum albumin; Sigma-Aldrich, Taufkirchen, Germany), 5.6 mM glucose and 0.05% gelatine (Merck KGaA, Darmstadt, Germany) is added. After a further incubation of 20 minutes at room temperature, the plates are inserted into the FLIPR for Ca^2+ measurement. The Ca^2+-dependent fluorescence is measured here before and after addition of substances (λex=488 nm, λem=540 nm). The quantification is effected by measurement of the highest fluorescence intensity (FC, fluorescence counts) over time.
The FLIPR protocol comprises 2 additions of substance. Test substances (10 μM) are first pipetted on to the cells and the Ca^2+ inflow is compared with the control (hB1R: Lys-Des-Arg^9-bradykinin 0.5 nM; rB1R: Des-Arg^9-bradykinin 100 nM). The value in % activation based on the Ca^2+ signal after addition of Lys-Des-Arg^9-bradykinin (0.5 nM) or Des-Arg^9-bradykinin (100 nM) is obtained therefrom. After incubation for 10 minutes, 0.5 nM Lys-Des-Arg^9-bradykinin (hB1R) or 100 nM Des-Arg^9-bradykinin (rB1R) are applied and the inflow of Ca^2+ is likewise determined. Antagonists lead to a suppression of the Ca^2+ inflow. % inhibition compared with the maximum inhibition which can be achieved is calculated. The compounds show a good activity on the human and on the rat receptor. The following data were determined by way of example: […]
Turning to `COc1cc(C)c(S(=O)(=O)N2CCCC(OCC(=O)N3CCC(O)(Cc4ccccc4)CC3)C2)c(C)c1C` (stereo not drawn) [Example 11, 1-(4-benzyl-4-hydroxy-piperidin-1-yl)-2-[1-(4-methoxy-2,3,6-trimethyl-phenylsulfonyl)-piperidin-3-yloxy]-ethanone], the inhibition at 10 µM was found to be 70.9%.
As to `O=C(COCC1CCCCN1S(=O)(=O)c1ccc(Cl)c(Cl)c1)N1CCC(O)(c2cccnc2)CC1` (stereo not drawn) [Example 12, 2-[1-(3,4-dichloro-phenylsulfonyl)-piperidin-2-ylmethoxy]-1-(4′-hydroxy-3′,4′,5′,6′-tetrahydro-2′H-[3,4′]bipyridinyl-1′-yl)-ethanone], the inhibition at 10 µM amounted to 55.1%.
With `COc1cc(C)c(S(=O)(=O)N(CCOCC(=O)N2CCC(O)(Cc3ccccc3)CC2)Cc2ccccc2)c(C)c1C` [Example 13, N-benzyl-N-{2-[2-(4-benzyl-4-hydroxy-piperidin-1-yl)-2-oxo-ethoxy]-ethyl}-4-methoxy-2,3,6-trimethyl-phenylsulfonamide] the figure was 50.7%; with `COc1cc(C)c(S(=O)(=O)N2CCC(CCOCC(=O)N3CCC(O)(Cc4ccccc4)CC3)CC2)c(C)c1C` [Example 14, 1-(4-benzyl-4-hydroxy-piperidin-1-yl)-2-{2-[1-(4-methoxy-2,3,6-trimethyl-phenylsulfonyl)-piperidin-4-yl]-ethoxy}-ethanone], 43.2%; with `O=C(COC1CCN(S(=O)(=O)c2ccc(F)cc2)C1)N1CCC(O)(Cc2ccccc2)CC1` (stereo not drawn) [Example 15, 1-(4-benzyl-4-hydroxy-piperidin-1-yl)-2-[1-(4-fluoro-phenylsulfonyl)-pyrrolidin-3-yloxy]-ethanone], 40.2%.
In the case of `COc1ccc(S(=O)(=O)N(C)CCOCC(=O)N2CCC(O)(Cc3ccccc3)CC2)cc1OC` [Example 16, N-{2-[2-(4-benzyl-4-hydroxy-piperidin-1-yl)-2-oxo-ethoxy]-ethyl}-3,4-dimethoxy-N-methyl-phenylsulfonamide], the inhibition at 10 µM amounted to 31.2%.
Consider `COc1cc(C)c(S(=O)(=O)N2CCN(CCOCC(=O)N3CCC(O)(Cc4ccccc4)CC3)CC2)c(C)c1C` [Example 18, 1-(4-benzyl-4-hydroxy-piperidin-1-yl)-2-{2-[4-(4-methoxy-2,3,6-trimethyl-phenylsulfonyl)-piperazin-1-yl]-ethoxy}-ethanone], for which the inhibition at 10 µM came out at 23.5%.
With `O=C(COCC1CCCN1S(=O)(=O)c1ccc(Cl)c(Cl)c1)N1CCC(O)(c2cccnc2)CC1` (stereo not drawn) [Example 19, 2-[1-(3,4-dichloro-phenylsulfonyl)-pyrrolidin-2-ylmethoxy]-1-(4′-hydroxy-3′,4′,5′,6′-tetrahydro-2′H-[3,4′]bipyridinyl-1′-yl)-ethanone], the inhibition at 10 µM was 23.2%.
For the compound `O=C(COC1CCN(S(=O)(=O)c2ccccc2)C1)N1CCC(O)(Cc2ccccc2)CC1` (stereo not drawn) [Example 22, 2-(1-phenylsulfonyl-pyrrolidin-3-yloxy)-1-(4-benzyl-4-hydroxy-piperidin-1-yl)-ethanone], the inhibition at 10 µM came out at 20.2%.
Regarding `O=C(COCC1CCCCN1S(=O)(=O)c1ccc(Cl)c(Cl)c1)N1CCC(O)(c2ccccn2)CC1` (stereo not drawn) [Example 25, 2-[1-(3,4-dichloro-phenylsulfonyl)-piperidin-2-ylmethoxy]-1-(4′-hydroxy-3′,4′,5′,6′-tetrahydro-2′H-[2,4′]bipyridinyl-1′-yl)-ethanone], the inhibition at 10 µM turned out to be 10%.
As for `O=C(COC1CCCN(S(=O)(=O)c2ccccc2)C1)N1CCC(O)(Cc2ccccc2)CC1` (stereo not drawn) [Example 27, 2-(1-phenylsulfonyl-piperidin-3-yloxy)-1-(4-benzyl-4-hydroxy-piperidin-1-yl)-ethanone], the inhibition at 10 µM was 9.32%.
For the compound `COc1ccc(S(=O)(=O)N(C)CCOCC(=O)N2CCC(O)(Cc3ccccc3)CC2)cc1` [Example 28, N-{2-[2-(4-benzyl-4-hydroxy-piperidin-1-yl)-2-oxo-ethoxy]-ethyl}-4-methoxy-N-methyl-phenylsulfonamide], the inhibition at 10 µM amounted to 8.5%.
